In the supplement of paper PMC11451515:

Tested on: P12-Ichikawa
Assay: cell viability relative to DMSO control; higher = less cytotoxic
Conditions: 48 h
How it was run: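 Viability values are per-plate percentages of DMSO wells, with background from cell-free wells. Library compounds in DMSO were pin-dosed, in an 11-point threefold series from 47 μM to 0.79 nM, onto NOMO1 or SEM (500 cells/well) or P12-Ichikawa (1000 cells/well) leukemia cells in 1536-well plates (5 μl). Those cells had been adapted for at least four passages in each medium, and CellTiter-Glo One luminescence was read after 48 h at 37°C.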

[1] = HPLM + 10% dialyzed FBS, 0.000781 µM
[2] = HPLM + 10% dialyzed FBS, 0.00234 µM
[3] = HPLM + 10% dialyzed FBS, 0.00702 µM
[4] = HPLM + 10% dialyzed FBS, 0.0211 µM
[5] = HPLM + 10% dialyzed FBS, 0.0632 µM
[6] = HPLM + 10% dialyzed FBS, 0.19 µM
[7] = HPLM + 10% dialyzed FBS, 0.569 µM
[8] = HPLM + 10% dialyzed FBS, 1.71 µM
[9] = HPLM + 10% dialyzed FBS, 5.12 µM
[10] = HPLM + 10% dialyzed FBS, 15.4 µM
[11] = HPLM + 10% dialyzed FBS, 46.1 µM
[12] = RPMI 5 mM glucose + 10% FBS, 0.000781 µM
[13] = RPMI 5 mM glucose + 10% FBS, 0.00234 µM
[14] = RPMI 5 mM glucose + 10% FBS, 0.00702 µM
[15] = RPMI 5 mM glucose + 10% FBS, 0.0211 µM
[16] = RPMI 5 mM glucose + 10% FBS, 0.0632 µM
[17] = RPMI 5 mM glucose + 10% FBS, 0.19 µM
[18] = RPMI 5 mM glucose + 10% FBS, 0.569 µM
[19] = RPMI 5 mM glucose + 10% FBS, 1.71 µM
[20] = RPMI 5 mM glucose + 10% FBS, 5.12 µM
[21] = RPMI 5 mM glucose + 10% FBS, 15.4 µM
[22] = RPMI 5 mM glucose + 10% FBS, 46.1 µM
[23] = RPMI 5 mM glucose + 10% dialyzed FBS, 0.000781 µM
[24] = RPMI 5 mM glucose + 10% dialyzed FBS, 0.00234 µM
[25] = RPMI 5 mM glucose + 10% dialyzed FBS, 0.00702 µM
[26] = RPMI 5 mM glucose + 10% dialyzed FBS, 0.0211 µM
[27] = RPMI 5 mM glucose + 10% dialyzed FBS, 0.0632 µM
[28] = RPMI 5 mM glucose + 10% dialyzed FBS, 0.19 µM
[29] = RPMI 5 mM glucose + 10% dialyzed FBS, 0.569 µM
[30] = RPMI 5 mM glucose + 10% dialyzed FBS, 1.71 µM
[31] = RPMI 5 mM glucose + 10% dialyzed FBS, 5.12 µM
[32] = RPMI 5 mM glucose + 10% dialyzed FBS, 15.4 µM
[33] = RPMI 5 mM glucose + 10% dialyzed FBS, 46.1 µM

SMILES | cell viability [1] [%] | cell viability [2] [%] | cell viability [3] [%] | cell viability [4] [%] | cell viability [5] [%] | cell viability [6] [%] | cell viability [7] [%] | cell viability [8] [%] | cell viability [9] [%] | cell viability [10] [%] | cell viability [11] [%] | cell viability [12] [%] | cell viability [13] [%] | cell viability [14] [%] | cell viability [15] [%] | cell viability [16] [%] | cell viability [17] [%] | cell viability [18] [%] | cell viability [19] [%] | cell viability [20] [%] | cell viability [21] [%] | cell viability [22] [%] | cell viability [23] [%] | cell viability [24] [%] | cell viability [25] [%] | cell viability [26] [%] | cell viability [27] [%] | cell viability [28] [%] | cell viability [29] [%] | cell viability [30] [%] | cell viability [31] [%] | cell viability [32] [%] | cell viability [33] [%]
COC(=O)C\1=C(C)\N\C(=C(/C1C2=CC=CC3=NON=C23)C(=O)OC(C)C)C (configuration not stated) | 100 | 102 | 99.4 | 95 | 102 | 93.8 | 96.9 | 96.1 | 88 | 90.2 | 87.7 | 96.1 | 101 | 100 | 94.8 | 104 | 98.8 | 93.1 | 94.2 | 87 | 86.9 | 87.4 | 97.6 | 94.6 | 88.5 | 95.2 | 101 | 90.4 | 88.7 | 87.2 | 93.4 | 86.6 | 86.1
CC#CCn1c(N2CCC[C@@H](N)C2)nc2c1c(=O)n(Cc1nc(C)c3ccccc3n1)c(=O)n2C | 104 | 104 | 99.3 | 89.2 | 108 | 109 | 104 | 97.8 | 103 | 99.7 | 88.5 | 94.9 | 102 | 102 | 85.9 | 96.8 | 94.6 | 96.1 | 93.9 | 91.2 | 87.4 | 94.9 | 104 | 102 | 98.4 | 83.6 | 100 | 109 | 101 | 95.9 | 97.6 | 85.1 | 85.9
CNc1nc(Nc2cnn([C@H]3CCN(C4COC4)C[C@@H]3F)c2Cl)ncc1C(F)(F)F | 91 | 100 | 108 | 108 | 102 | 92.9 | 98.5 | 53.3 | 24.9 | 30 | 28 | 93.9 | 106 | 99.6 | 106 | 115 | 112 | 115 | 99.1 | 54 | 22.2 | 39.2 | 100 | 103 | 110 | 120 | 115 | 111 | 114 | 93.1 | 54.3 | 34.8 | 38.1
CN1CCCN(CC1)C2=CC=C3C(=O)\C(=C/4SC5=C(C=CC=C5)N4C3=N2)C(=O)NCC6=CN=C(C)C=N6 | 114 | 108 | 119 | 108 | 110 | 113 | 108 | 103 | 92.3 | 92.4 | 84.6 | 113 | 124 | 122 | 109 | 117 | 108 | 95.9 | 101 | 83.3 | 81.8 | 54.1 | 103 | 114 | 117 | 108 | 107 | 104 | 94.5 | 92.1 | 85.8 | 82.2 | 59.6
CC1=CC(=CC(=C1C\C2=N\CCN2)C)C(C)(C)C | 102 | 105 | 105 | 106 | 105 | 124 | 107 | 116 | 106 | 104 | 102 | 99.5 | 105 | 105 | 114 | 118 | 113 | 111 | 114 | 99.3 | 86.4 | 90.2 | 91 | 96.4 | 98.1 | 100 | 105 | 92.9 | 103 | 102 | 97.9 | 91.4 | 84.1
O=C(CCCN1CCN(c2ccc(F)cc2)CC1)NC1c2ccccc2CSc2ccccc21 (configuration not stated) | 120 | 125 | 123 | 119 | 121 | 120 | 117 | 119 | 109 | 102 | 71.4 | 126 | 121 | 119 | 126 | 131 | 123 | 136 | 119 | 97.4 | 83.5 | 55.1 | 123 | 122 | 122 | 120 | 120 | 115 | 121 | 110 | 100 | 77.7 | 59
Cc1ccnc2c1NC(=O)c1cccnc1N2C1CC1 | 97.4 | 113 | 112 | 106 | 112 | 115 | 115 | 116 | 105 | 106 | 109 | 98.3 | 109 | 117 | 108 | 110 | 116 | 113 | 115 | 102 | 95.2 | 96.5 | 93.5 | 106 | 99.9 | 110 | 108 | 106 | 104 | 111 | 97.1 | 98.8 | 96.8
Nc1c2c(nc3ccccc13)CCCC2 | 119 | 119 | 112 | 111 | 118 | 120 | 107 | 68.4 | 109 | 110 | 99 | 118 | 124 | 128 | 117 | 120 | 115 | 124 | 64.9 | 109 | 113 | 89.2 | 106 | 117 | 119 | 118 | 86.6 | 109 | 117 | 84.3 | 102 | 102 | 79.1
Cc1cccc(Nc2ccncc2[S+](=O)([O-])NC(=O)NC(C)C)c1 | 102 | 97.6 | 100 | 93.8 | 101 | 96.7 | 93 | 90 | 91.3 | 85.8 | 83.1 | 94.9 | 95.5 | 95.4 | 94.2 | 104 | 104 | 98.2 | 94.1 | 96.8 | 86.4 | 86.6 | 86.1 | 89.3 | 93.1 | 90 | 91.9 | 97.2 | 90 | 87.3 | 88 | 85.5 | 76.1
CCOC(=O)C(C)OC1=CC=CC2=C1\C=C/N(CC(=O)NC3=CC=C4OCCOC4=C3)C2=O (configuration not stated) | 89.3 | 97.6 | 97.9 | 53.9 | 101 | 106 | 95.5 | 97.5 | 90.5 | 101 | 108 | 89.6 | 97.6 | 97.9 | 91.7 | 98.6 | 103 | 103 | 91.2 | 87.2 | 111 | 108 | 88.6 | 88.2 | 91.5 | 88.5 | 85.7 | 98.2 | 92.2 | 89.8 | 90.4 | 92.5 | 101
Nc1ccc([S+](=O)([O-])Nc2ccnn2-c2ccccc2)cc1 | 105 | 103 | 103 | 109 | 111 | 102 | 105 | 106 | 105 | 110 | 107 | 95.9 | 101 | 98.3 | 96 | 108 | 115 | 108 | 106 | 100 | 109 | 107 | 86.1 | 98.7 | 97.7 | 92.9 | 105 | 99 | 98.2 | 112 | 103 | 106 | 96.7
Nc1ncnc2c1ncn2[C@@H]1O[C@H](CO)C[C@H]1O | 92.5 | 96.4 | 92.8 | 93.1 | 98.8 | 94.1 | 93.1 | 88.8 | 92.2 | 89.3 | 89 | 87.9 | 104 | 94 | 94.4 | 87.7 | 96 | 93 | 93.5 | 85.3 | 86.8 | 87.6 | 83.8 | 90.1 | 97.7 | 90.9 | 87.4 | 91.2 | 94.5 | 87.6 | 86.1 | 89.6 | 92.3
C[C@]12CC[C@H]3[C@@H](CCC4=CC(=O)CC[C@@H]43)[C@@H]1CC[C@@H]2OC(=O)CCc1ccccc1 | 116 | 115 | 117 | 115 | 113 | 121 | 120 | 120 | 121 | 119 | 117 |  |  |  |  |  |  |  |  |  |  |  | 104 | 113 | 112 | 106 | 115 | 119 | 113 | 123 | 112 | 114 | 104
CNC(=O)c1ccc(Nc2cc(Nc3ccccc3[S+](=O)([O-])C(C)C)c3cc[nH]c3n2)nc1 | 98.8 | 104 | 107 | 100 | 110 | 111 | 113 | 89.8 | 12.5 | 10.6 | 22.3 | 108 | 108 | 105 | 115 | 105 | 113 | 98.1 | 66.7 | 14.7 | 12.6 | 19.2 | 109 | 105 | 111 | 105 | 116 | 118 | 107 | 83.5 | 26.7 | 28.2 | 29.6
O=C(O)c1cc(/N=N/c2ccc([S+](=O)([O-])Nc3ccccn3)cc2)ccc1O | 108 | 107 | 112 | 102 | 113 | 116 | 116 | 107 | 106 | 98.6 | 92.3 | 108 | 111 | 105 | 110 | 119 | 115 | 114 | 122 | 113 | 111 | 108 | 103 | 114 | 110 | 102 | 120 | 114 | 119 | 120 | 110 | 102 | 102
CC(C(=O)O)c1ccc2c(c1)CC(=O)c1ccccc1S2 (configuration not stated) | 104 | 108 | 107 | 110 | 118 | 106 | 115 | 101 | 111 | 37.5 | 25.1 | 99.3 | 117 | 101 | 104 | 116 | 115 | 118 | 109 | 106 | 24 | 18.8 | 102 | 101 | 101 | 99.2 | 99.5 | 107 | 104 | 109 | 104 | 31.7 | 21.2
